Measured values reported in patent US12492194B2, “HPK1 inhibitors” (Janssen Pharmaceutica NV, priority 2019, dated 2025).

Experiments:
full-length human Hpk1 = target: T1, full-length human Hpk1 (Homo sapiens, UniProt Q92918); experiment: HPK1 kinase assay (ADP Glo Kinase Assay); assay type: biochemical; settings: full-length human GST-Hpk1, ADP Glo, 75 μM ATP; for IC50: read-out: Hpk1 biochemical (pIC50) (converted)
T1 construct: A recombinant fusion protein consisting of full-length human Hpk1; GST (N)
T1 sequence (Q92918 whole entry, the tested form may be a part): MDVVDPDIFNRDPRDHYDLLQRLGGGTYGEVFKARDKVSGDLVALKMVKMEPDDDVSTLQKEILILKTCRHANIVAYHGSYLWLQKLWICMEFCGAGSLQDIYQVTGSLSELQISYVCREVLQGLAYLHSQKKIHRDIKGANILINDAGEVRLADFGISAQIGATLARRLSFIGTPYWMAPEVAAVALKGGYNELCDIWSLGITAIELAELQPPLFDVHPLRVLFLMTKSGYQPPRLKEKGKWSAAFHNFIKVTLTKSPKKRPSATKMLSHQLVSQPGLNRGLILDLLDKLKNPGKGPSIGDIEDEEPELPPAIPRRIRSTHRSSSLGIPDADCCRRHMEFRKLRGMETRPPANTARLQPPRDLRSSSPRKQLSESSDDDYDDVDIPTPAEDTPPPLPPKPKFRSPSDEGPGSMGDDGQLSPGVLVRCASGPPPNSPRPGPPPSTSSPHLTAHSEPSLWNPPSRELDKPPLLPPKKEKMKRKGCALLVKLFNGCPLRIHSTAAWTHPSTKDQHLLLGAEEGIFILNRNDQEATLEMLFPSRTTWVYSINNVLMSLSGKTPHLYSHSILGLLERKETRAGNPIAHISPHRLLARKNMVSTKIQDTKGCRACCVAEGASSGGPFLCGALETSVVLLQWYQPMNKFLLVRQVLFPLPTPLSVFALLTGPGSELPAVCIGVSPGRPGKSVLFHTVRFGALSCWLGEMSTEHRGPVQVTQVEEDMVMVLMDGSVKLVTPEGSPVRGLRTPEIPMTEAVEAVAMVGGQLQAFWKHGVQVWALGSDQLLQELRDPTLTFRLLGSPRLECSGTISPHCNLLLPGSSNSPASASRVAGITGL
Procedure: Pharmacological Part HPK1 Kinase Assay
A recombinant fusion protein consisting of full-length human Hpk1 with an N-terminal Glutatione S-transferase (GST) tag was produced in a baculovirus/insect cell expression system. GST-Hpk1 protein was purified from cell lysates by glutathione sepharose affinity chromatography. Kinase inhibition was determined using the ADP Glo™ Kinase Assay kit (Promega, V9101). Test compounds were prepared by serial dilution in dimethyl sulfoxide (DMSO) and 0.1 μl of each dilution was spotted onto a 384-well white Proxiplate (Perkin Elmer, 6008289). 8 μl of kinase assay buffer (40 mM Tris pH 7.5, 2 mM dithiothreitol (DTT), 0.05% Bovine Serum Albumin, 5 mM MgCl2) containing Hpk1 protein was transferred to each well and incubated for 30-45 minutes at room temperature. The enzymatic reaction was started by adding 2 μl of kinase assay buffer containing 75 μM ATP. After 120 minutes, the reaction was stopped by adding 3 μl of ADP Glo™ reagent (Promega, V9101) and incubating 45 minutes at room temperature.

Hpk1 = Hpk1 (Homo sapiens, UniProt Q92918); experiment: SLP76 phosphorylation assay (SLP76 pS376 in lysates of HEK293 cells engineered to express Hpk1 and SLP76); assay type: cell-based; settings: HEK293 cells expressing Hpk1 and SLP76, 4 hours incubation; for IC50: read-out: pSLP76 (HEK293) (pIC50) (converted)
Sequence of Hpk1 (Q92918 whole entry): as the sequence (Q92918 whole entry, the tested form may be a part) above
Procedure: SLP76 Phosphorylation Assay
Hpk1 inhibition in cells was determined by detection of SLP76 phosphorylation at S376 in lysates from HEK293 cells engineered to express Hpk1 and SLP76. Serial dilutions of test compounds were prepared in cell culture medium and 20 μl was transferred into each well of a 96-well plate containing HEK293 cells in 180 μl of culture medium. After incubation for 4 hours at 37° C./5% CO2, the culture medium was removed, plates were put on ice and cells washed with cold Minimal Essential Medium before lysing in 90 μl of cold Mammalian Protein Extraction Reagent (Thermo Scientific, 78501) for 30 minutes on ice. The cell lysates were transferred to another 96-well plate, centrifuged 10 minutes at 3000 rcf (4° C.) and 30 μl transferred to a 96-well High-bind plate (MSD, L15XB-3). After coating overnight at 4° C., the cell lysate was removed, wells were washed with base buffer (TBS, 0.2% Tween-20), and blocking solution (base buffer containing 3% MSD blocker A) was added to each well for 1 hour at room temperature. The blocking solution was removed, the wells were washed with base buffer, and detection antibody (SLP76 pS376) was added in 25 μl base buffer containing 1% MSD blocker A to each well. After a 2 h incubation at room temperature, the detection antibody was removed, wells were washed four times with base buffer, 25 μl SULFO-TAG labeled goat anti-rabbit secondary antibody (MSD, R32AB-1) in base buffer containing 1% MSD blocker A was added to each well and left for 1 hour at room temperature. Wells were washed 4 times with base buffer, 150 μl Read Buffer T was added to each well, and the plates were read in a Mesoscale plate reader (MSD). IC50 values were determined by curve-fitting the electrochemiluminescent signals obtained from the lysates of HEK293 cells expressing Hpk1 and SLP76 treated with test compounds at various concentrations minus the signal obtained from HEK293 cells expressing SLP76 only.

Nc1ncc(-c2ccc(C3CCOCC3)c([C@@H]3CCCN3)c2)cc1-c1cc[nH]c(=O)c1 [Co. 57]
IC50 (full-length human Hpk1): 26.3 nM | IC50 (Hpk1): > 10000 nM

Nc1ncc(-c2ccc(C3CCOCC3)c(-c3cnc[nH]3)c2)cc1-c1ccncc1 [Co. 13]
IC50 (full-length human Hpk1): 186 nM | IC50 (Hpk1): 8910 nM

Nc1ncc(-c2ccc(C3CCOCC3)c([C@@H]3CCCN3)c2)nc1-c1ccncc1 [Co. 42]
IC50 (full-length human Hpk1): 24.5 nM | IC50 (Hpk1): 2000 nM

Nc1ncc(-c2ccc(C3CCOCC3)c([C@@H]3CCCN3)c2)cc1-c1cc(F)ncc1F [Co. 31]
IC50 (full-length human Hpk1): 20.4 nM | IC50 (Hpk1): 1050 nM

C[C@H]1CN[C@H](c2cc(-c3cnc(N)c(-c4ccnc(F)c4)c3)ccc2C2CCOCC2)CO1 [Co. 94]
IC50 (full-length human Hpk1): 12.9 nM | IC50 (Hpk1): 575 nM

Nc1ncc(-c2ccc([C@H]3CCOC3)c([C@@H]3CCCN3)c2)cc1-c1ccnc(F)c1 (single isomer, unassigned) [Co. 101]
IC50 (full-length human Hpk1): 3.72 nM | IC50 (Hpk1): 692 nM

Cc1cc(-c2cc(-c3ccc(C4CCOCC4)c([C@@H]4CCCN4)c3)cnc2N)on1 [Co. 39]
IC50 (full-length human Hpk1): 2.34 nM | IC50 (Hpk1): 275 nM

Nc1ncc(-c2ccc(C3CCOCC3)c([C@H]3CCCN3)c2)cc1-c1ccncc1 [Co. 25b]
IC50 (full-length human Hpk1): 955 nM | IC50 (Hpk1): > 10000 nM

CC(=O)N1CC=C(c2ccc(-c3cnc(N)c(-c4ccnc(F)c4)c3)cc2[C@@H]2CCCN2)CC1 [Co. 47]
IC50 (full-length human Hpk1): 24.5 nM | IC50 (Hpk1): 1350 nM

Nc1ncc(-c2ccc(C3CCOCC3)c([C@@H]3CN4CCCC[C@H]4CN3)c2)cc1Br [Co. 104]
IC50 (full-length human Hpk1): 58.9 nM | IC50 (Hpk1): 7940 nM

CN(C)Cc1cc(-c2cnc(N)c(-c3ccnc(NCCCO)c3)c2)ccc1C1CCOCC1 [Co. 75]
IC50 (full-length human Hpk1): 41.7 nM | IC50 (Hpk1): 2290 nM

Nc1ncc(-c2ccc(C3CCOCC3)c([C@@H]3CCCN3)c2)nc1-c1ccnc(F)c1 [Co. 43]
IC50 (full-length human Hpk1): 21.4 nM | IC50 (Hpk1): > 10000 nM

Nc1ncc(-c2ccc(C3CCOCC3)c([C@H]3CC4(CC4)CN3)c2)cc1-c1ccncc1 (single isomer, unassigned) [Co. 8b]
IC50 (full-length human Hpk1): 135 nM | IC50 (Hpk1): 6920 nM

Cn1cc(-c2nc(-c3ccc(C4CCOCC4)c([C@@H]4CCCN4)c3)cnc2N)cn1 [Co. 41]
IC50 (full-length human Hpk1): 4.57 nM | IC50 (Hpk1): 617 nM

CC(=O)N1CCC(c2cc(-c3ccc(C4CCOCC4)c([C@@H]4CCCN4)c3)cnc2N)CC1 [Co. 96]
Hpk1 biochemical (pIC50) (full-length human Hpk1): 6.84 | pSLP76 (HEK293) (pIC50) (Hpk1): 5.1

Nc1ncc(-c2ccc(C3CCOCC3)c([C@@H]3COCCN3)c2)cc1Cl [Co. 85]
IC50 (full-length human Hpk1): 38 nM | IC50 (Hpk1): 1150 nM

Nc1ncc(-c2ccc(C3CCOCC3)c([C@@H]3CC4(CC4)CN3)c2)cc1-c1ccnc(F)c1 (single isomer, unassigned) [Co. 5a]
IC50 (full-length human Hpk1): 10.2 nM | IC50 (Hpk1): 776 nM

Nc1ncc(-c2ccc(C3CCOCC3)c([C@@H]3CCCN3)c2)cc1-c1cnn(CCO)c1 [Co. 21]
IC50 (full-length human Hpk1): 18.6 nM | IC50 (Hpk1): 6920 nM

Nc1ncc(-c2ccc(C3CCC(F)(F)CC3)c([C@@H]3CCCN3)c2)cc1-c1ccnc(F)c1 [Co. 50]
IC50 (full-length human Hpk1): 20 nM | IC50 (Hpk1): 2450 nM

Nc1ncc(-c2ccc(C3CCOCC3)c([C@@H]3CCCN3)c2)cc1-c1ccnnc1 [Co. 33]
IC50 (full-length human Hpk1): 14.5 nM | IC50 (Hpk1): 2290 nM

Nc1ncc(-c2ccc(C3CCOCC3)c([C@@H]3CCCN3)c2)cc1-c1cc(F)ncc1Cl [Co. 32]
IC50 (full-length human Hpk1): 28.2 nM | IC50 (Hpk1): 1860 nM

Nc1ncc(-c2ccc(C3CCOCC3)c(-c3cnn[nH]3)c2)cc1-c1ccncc1 [Co. 15]
IC50 (full-length human Hpk1): 575 nM | IC50 (Hpk1): > 10000 nM

CN(C)Cc1cc(-c2cnc(N)c(-c3ccnc(N4CCNCC4)c3)c2)ccc1C1CCOCC1 [Co. 67]
IC50 (full-length human Hpk1): 46.8 nM | IC50 (Hpk1): 1660 nM

CS(=O)(=O)n1cc(-c2cc(-c3ccc(C4CCOCC4)c([C@@H]4CCCN4)c3)cnc2N)cn1 [Co. 19]
IC50 (full-length human Hpk1): 4.27 nM | IC50 (Hpk1): 977 nM

Nc1ncc(-c2ccc(N3CCOCC3)c([C@@H]3CCCN3)c2)cc1-c1ccnc(F)c1 [Co. 2]
IC50 (full-length human Hpk1): 41.7 nM | IC50 (Hpk1): 871 nM

Nc1ncc(-c2ccc(C3CCOCC3)c([C@@H]3CCCN3)c2)cc1-c1ccnc(F)c1F [Co. 27]
IC50 (full-length human Hpk1): 5.75 nM | IC50 (Hpk1): 240 nM

N#Cc1ccc(-c2cc(-c3ccc(C4CCOCC4)c([C@@H]4CCCN4)c3)cnc2N)cc1 [Co. 36]
IC50 (full-length human Hpk1): 7.94 nM | IC50 (Hpk1): 692 nM

Nc1ncc(-c2ccc(C3CCOCC3)c([C@@H]3C[S@+]([O-])CCN3)c2)cc1-c1ccnc(F)c1 (single isomer, unassigned) [Co. 15b]
IC50 (full-length human Hpk1): 200 nM | IC50 (Hpk1): > 10000 nM

Nc1ncc(-c2ccc(C3CCOCC3)c([C@@H]3C[S@@+]([O-])CCN3)c2)cc1-c1ccnc(F)c1 (single isomer, unassigned) [Co. 15c]
IC50 (full-length human Hpk1): 631 nM | IC50 (Hpk1): > 10000 nM

Nc1ncc(-c2ccc(C3CCOCC3)c([C@H]3COCCN3)c2)cc1-c1ccncc1 [Co. 80b]
IC50 (full-length human Hpk1): 3720 nM | IC50 (Hpk1): > 10000 nM

COc1cnccc1-c1cc(-c2ccc(C3CCOCC3)c([C@@H]3CCCN3)c2)cnc1N [Co. 24]
IC50 (full-length human Hpk1): 13.2 nM | IC50 (Hpk1): 891 nM

Nc1ncc(-c2ccc(C3CCOCC3)c([C@@H]3CCCN3)c2)cc1-c1ccnc(F)c1Cl [Co. 35]
IC50 (full-length human Hpk1): 8.13 nM | IC50 (Hpk1): 676 nM

CC1(C)COc2ncc(-c3cc(-c4ccc(C5CCOCC5)c([C@@H]5CCCN5)c4)cnc3N)cc21 [Co. 40]
IC50 (full-length human Hpk1): 8.91 nM | IC50 (Hpk1): 1100 nM

Nc1ncc(-c2ccc(C3CCOCC3)c([C@@H]3CCCN3)c2)cc1-c1ccnc(C(F)F)c1 [Co. 34]
IC50 (full-length human Hpk1): 17.4 nM | IC50 (Hpk1): 1820 nM

Nc1ncc(-c2ccc(C3CCOCC3)c([C@@H]3CCCN3)c2)cc1-c1nccs1 [Co. 20]
IC50 (full-length human Hpk1): 3.16 nM | IC50 (Hpk1): 170 nM

C[C@H]1COC[C@@H](c2cc(-c3cnc(N)c(-c4ccncc4)c3)ccc2C2CCOCC2)N1 (single isomer, unassigned) [Co. 83a]
IC50 (full-length human Hpk1): 44.7 nM | IC50 (Hpk1): 1350 nM

Nc1ncc(-c2ccc(C3CCOCC3)c([C@@H]3COCCN3)c2)cc1Br [Co. 78]
IC50 (full-length human Hpk1): 8.13 nM | IC50 (Hpk1): 912 nM

Nc1ncc(-c2ccc(C3=CCOC3)c([C@@H]3CCCN3)c2)cc1-c1ccnc(F)c1 [Co. 45]
IC50 (full-length human Hpk1): 41.7 nM | IC50 (Hpk1): 1120 nM

CC(CO)CNC(=O)c1cc(-c2ccc(C3CCOCC3)c(CN(C)C)c2)cnc1N (stereo not drawn) [Co. 111]
IC50 (full-length human Hpk1): 110 nM | IC50 (Hpk1): 5890 nM

CC(C)(C#N)c1cc(-c2cc(-c3ccc(C4CCOCC4)c([C@@H]4CCCN4)c3)cnc2N)ccn1 [Co. 29]
IC50 (full-length human Hpk1): 38 nM | IC50 (Hpk1): 6030 nM

Nc1ncc(-c2ccc(C3CCOCC3)c([C@@H]3CCCN3)c2)cc1-c1ccncc1 [Co. 25]
IC50 (full-length human Hpk1): 9.77 nM | IC50 (Hpk1): 427 nM

Nc1ncc(-c2ccc(C3CCOCC3)c([C@@H]3CCCN3)c2)cc1-c1ccnc(Cl)c1 [Co. 17]
IC50 (full-length human Hpk1): 15.8 nM | IC50 (Hpk1): 1580 nM

CN(C)Cc1cc(-c2cnc(N)c(-c3ccncn3)c2)ccc1C1CCOCC1 [Co. 77]
IC50 (full-length human Hpk1): 14.1 nM | IC50 (Hpk1): 2570 nM

Cc1cc(-c2ccc(C3CCOCC3)c([C@@H]3COCCN3)c2)cnc1N [Co. 86]
IC50 (full-length human Hpk1): 120 nM | IC50 (Hpk1): 3980 nM

Nc1ncc(-c2ccc(N3CCOCC3)c(-c3nnc[nH]3)c2)cc1-c1ccncc1 [Co. 14]
IC50 (full-length human Hpk1): 832 nM | IC50 (Hpk1): > 10000 nM

[2H]c1cc(-c2cc(-c3ccc(C4CCOCC4)c([C@@H]4CCCN4)c3)cnc2N)cc([2H])n1 [Co. 65]
IC50 (full-length human Hpk1): 26.9 nM | IC50 (Hpk1): 1200 nM

Nc1ncc(-c2ccc(C3CCOCC3)c([C@@H]3CCCN3)c2)cc1-c1ccnc(F)c1 [Co. 1]
IC50 (full-length human Hpk1): 7.59 nM | IC50 (Hpk1): 380 nM

Nc1ncc(-c2ccc(C3CCOCC3)c([C@@H]3CCCN3)c2)cc1-c1ccc(=O)[nH]c1 [Compound 56]
IC50 (full-length human Hpk1): 35.5 nM | IC50 (Hpk1): > 10000 nM

CN(C)Cc1cc(-c2cnc(N)c(-c3ccccc3)c2)ccc1C1CCOCC1 [Co. 76]
IC50 (full-length human Hpk1): 34.7 nM | IC50 (Hpk1): 1950 nM

C[C@H]1CN[C@H](c2cc(-c3cnc(N)c(-c4cnn(C)c4)n3)ccc2C2CCOCC2)CO1 [Co. 90]
IC50 (full-length human Hpk1): 35.5 nM | IC50 (Hpk1): 1230 nM

Nc1ncc(-c2ccc(C3CCOCC3)c([C@@H]3CCCN3)c2)cc1-c1cn[nH]c1 [Co. 23]
IC50 (full-length human Hpk1): 1.02 nM | IC50 (Hpk1): 302 nM
